Patent US7879914B2, “Methods for treating viral infections using polyamine analogs” (Pathlogica LLC, priority 2005, dated 2011)

Experiments:
HIV proviral DNA = assay: HIV proviral load after exposure of mononuclear cells in culture (Example 7); assay type: cell-based
Method: Mononuclear cells from HIV infected individuals were isolated and exposed to PA-001 in culture under non-adherent conditions for five days. The cells were then separated into CD3+ and CD14+ fractions via antibody-coated magnetic beads using a Miltenyi apparatus. The “-/-” samples represent flow thru after CD3+ and CD14+ cells were removed. Genomic DNA was prepared and then amplified with HIV specific primers and primers homologous to the single copy gene cJun. Results with HIV specific primers were normalized to those obtained with cJun. The number of HIV DNA copies per cellular DNA equivalent after exposure of mononuclear cell cultures from HIV infected individuals to PA-001 under non-adherent conditions for five days is shown in FIG. 7. Results with HIV specific primers were normalized to those obtained with cJun. Each bar represents the mean of three separate determinations. The error bar indicates one standard deviation from the mean. The numbers under the sample designations indicate the % of CD16+ monocytes killed by PA-001. ND=not done.

[1] = patients, Int. J. Cancer 26, 571 (1980); cited from earlier work

CC(/C=N/NC(=N)N)=N\NC(=N)N [MGBG]
HIV proviral load in cells that neither bound to CD14 or CD3 antibodies (HIV proviral DNA; FIG. 7B): effective in reducing | yield of HIV DNA in T cells (HIV proviral DNA; five days, CD3+ fraction): generally decreased slightly | HIV proviral load in CD14+ cells (HIV proviral DNA; five days, non-adherent conditions): significant decreases | toxicity in an anti-cancer regimen [1]: unacceptably toxic
